Assay results: US5792766A (priority 1996, dated 1998)
Counter-ions that a name gives are not always drawn.

biological target: GABAa receptor; assay: GABAa receptor activity: inhibition of 3H-RO15-1788 (3H-Flumazenil) binding to rat cortical tissue; details: 0.5 nM 3H-RO15-1788, 30 min at 4° C.
Protocol: The pharmaceutical utility of compounds of this invention are indicated by the following assay for GABAa receptor activity.
The assay is carried out as described in Thomas and Tallman (J. Bio. Chem. 156: 9838-9842, J. Neurosci. 3:433-440, 1983). Rat cortical tissue is dissected and homogenized in 25 volumes (w/v of 0.05M Tris HCl buffer (pH 7.4 at 4° C.). The tissue homogenate is centrifuged in the cold (4° C.) at 20,000×g for 20 minutes. The supernatant is decanted and the pellet is rehomogenized in the same volume of buffer and again centrifuged at 20,000×g. The supernatant is decanted and the pellet is frozen at -20° C. overnight. The pellet is then thawed and rehomogenized in 25 volume (original w/v) of buffer and the procedure is carried out twice. The pellet is finally resuspended in 50 volumes (w/v) of 0.05M Tris HCl buffer (pH 7.4 at […]).
Incubation contain 100 of tissue homogenate, […] of radioligand (0.5 nM ^3 H-RO15-1788 [^3 H-Flumazenil] specific activity 80 Ci/mmol), drug or blocker and buffer to a total volume of […]. Incubstion are carried for 30 min at 4° C. then are rapidly filtered through GFB filters to separate free and bound ligand. Filters are washed twice with fresh 0.05M Tris HCl buffer (pH 7.4 at 4° C.) and counted in a liquid scintillation counter. 1.0 mM diazepam is added to some tubes to determine nonspecific binding. Data are collected in triplicate determinations, averaged and % inhibition of total specific binding is calculated. Total Specific Binding=Total-Nonspecific. In some case, the amounts of unlabeled drugs is varied and total displacement curves of binding are carried. Data are converted to a form for the calculation of Ki and Hill Coefficient (nH).

| SMILES | Ki |
| --- | --- |
| COc1ccc(-c2ncc3n2CN(C(=O)N2CCCCC2)c2ccccc2-3)cc1 [Compound 1, 3-(4-methoxyphenyl)-5,6-dihydro-6-[(1-piperidino)carbonyl]imidazo[1,5-c]quinazoline] | 6 nM |
| CCn1c(=O)n2c(-c3ccccc3F)ncc2c2ccccc21 [Compound 76, 3-(2-Fluorophenyl)-5,6-dihydro-5-oxo-6-ethyl-imidazo[1,5-c]quinazoline] | 124 nM |
| COc1ccc(-c2ncc3n2CN(C(=O)N2CCOCC2)c2ccccc2-3)cc1 [Compound 3, 3-(4-Methoxyphenyl)-5,6-dihydro-6-[(1-morpholino)-carbonyl]imidazo[1,5-c]quinazoline hydrochloride] | 2.7 nM |
| COc1ccc(-c2ncc3n2CN(C(=O)N(C)C)c2ccccc2-3)cc1 [Compound 2, 3-(4-Methoxyphenyl)-5,6-dihydro-6-[(N,N-dimethyl-amino)carbonyl]imidazo[1,5-c]quinazoline hydrochloride] | 4.7 nM |
| COc1cccc(-c2ncc3n2CN(C(=O)N2CCCCC2)c2ccccc2-3)c1 [Compound 16, 3-(3-Methoxyphenyl)-5,6-dihydro-6-[(1-piperidino)-carbonyl]imidazo[1,5-]quinazoline hydrochloride] | 17 nM |
| COc1ccc(-c2ncc3n2CN(C(=O)c2ccccc2)c2ccccc2-3)cc1 [Compound 53, 3-(4-Methoxyphenyl)-5,6-dihydro-6-benzoylimidazo-[1,5-c]quinazoline] | 7.8 nM |
| O=C(N1CCCCCC1)N1Cn2c(cnc2-c2ccccc2)-c2ccccc21 [Compound 18, 3-Phenyl-5,6-dihydro-6-[(1-hexamethyleneimino)-carbonyl]imidazo[1,5-c]quinazoline hydrochloride] | 12 nM |
| COc1ccc(-c2ncc3n2CN(C(C)=O)c2ccccc2-3)cc1 [Compound 49, 3-(4-methoxyphenyl)-5,6-dihydro-6-acetylimidazo[1,5-c]-quinazoline] | 101 nM |
| COc1ccc(-c2ncc3n2CN(C(=O)c2ccccc2)c2ccccc2-3)c(F)c1 [Compound 72, 3-(2-Fluoro-4-methoxyphenyl)-5,6-dihydro-6-benzoyl-imidazo[1,5-c]quinazoline] | 9.7 nM |
